Patent US8835115B2, “ABCB1 genotyping to predict microtubule-stabilizing-agent-induced toxicity” (The United States of America as represented by the …, priority 2006, dated 2014)
Marks after values point to notes of the source that are not given here.

Experiments:
[1] = tested on: men with androgen-independent prostate cancer; experiment: Docetaxel-induced peripheral neuropathy by ABCB1 2677 genotype; type: in vivo, human; details: docetaxel 30 mg/m2 iv weekly for 3 consecutive weeks
Experimental: (§1) ABCB1 genotypes were evaluated in patients from a trial involving 73 men with androgen-independent prostate cancer that were treated with either docetaxel alone or docetaxel in combination with thalidomide. Patients were administered docetaxel intravenously (30 mg/m2) over 1 hour every week for 3 consecutive weeks (n=23). Some patients additionally received 200 mg of thalidomide orally each day (n=50). Toxicity was defined by Cancer Therapy Evaluation Program/National Cancer Institute Common Toxicity Criteria (version 2.0) and patients were evaluated for symptoms of toxicity weekly.

[2] = tested on: men with androgen-independent prostate cancer; experiment: Clinical grade of neutropenia in docetaxel-treated patients by ABCB1 genotype; type: in vivo, human
Experimental: as §1

[3] = Paclitaxel pharmacokinetics in plasma of treated subjects by ABCB1 genotype; details: for AUCp, area under the curve of total paclitaxel, Median (95% CI) / AUCu, area under the curve of unbound paclitaxel, Median (95% CI) / T > 0.05 μM, duration of total plasma concentration of paclitaxel exceeding 0.05 μM, Median (95% CI): 100 mg/m^2 iv infusion, first administration
Experimental: (§2) Twenty-six subjects were examined. There were 14 male subjects and 12 female subjects with a median age of 59.5 years (range: 42-72). The subjects were treated with weekly one- or three-hour paclitaxel infusions. All subjects had histologically proven, locally advanced or metastatic cancer, for which paclitaxel as monotherapy was a therapeutic option.
(§3) Paclitaxel (30 mg) formulated in a mixture of Cremophor and absolute:ethanol (1:1, vol/vol) (Bristol Myers Squibb, Munich, Germany) was diluted in 500 mL of 5% (weight/vol) dextrose in water and administered to subjects via a peripheral or central venous catheter using a motor-driven programmable infusion pump. Eligible subjects were randomized between a one hour and three hour infusion duration to receive a total of six weekly intravenous infusions of paclitaxel at a dose of 100 mg/m^2. After six weeks of therapy (defined as one cycle) response was evaluated bi-dimensionally, usually by computed tomography. Subjects with a stable disease, partial response or complete response after one cycle received a second cycle, provided toxic effects were not prohibitive.
Blood samples were obtained from the subjects described in Example 1 during the first paclitaxel administration at baseline and at serial time points during and after infusion. Concentrations of total paclitaxel in plasma were determined by a validated method based on reversed-phase high performance liquid chromatography with ultraviolet detection, while unbound paclitaxel plasma concentrations were determined by micro-equilibrium dialysis using a [G-^3H]paclitaxel tracer. Pertinent pharmacokinetic parameters were calculated by non-compartmental methods using WinNonlin® version 5.0 (Pharsight, Mountain View, Calif., USA).
All data are reported as median values with the associated 95% CI, unless specified otherwise. Interindividual pharmacokinetic variability was assessed as the coefficient of variation, and expressed as a percentage. The associations of the variant genotypes with individual pharmacokinetic parameters were evaluated statistically with the nonparametric Kruskal-Wallis test. All P values are two-tailed, and those less than or equal to 0.05 were considered to reflect statistically significant results.

[4] = tested on: subjects with locally advanced or metastatic cancer; experiment: Cumulative peripheral neuropathy (clinical score >3) during weekly paclitaxel therapy by ABCB1 genotype; type: in vivo, human; details: weekly paclitaxel 100 mg/m^2, 12 weeks
Excerpt: Twenty-six subjects were examined.
Prior to therapy, and if possible after six and twelve weeks of therapy, these examinations were supplemented by the evaluation of the peripheral neuropathy score, clinical chemistries (serum creatinine, transaminases, alkaline phosphatase, and bilirubin), electrocardiogram analysis and performance status. For the assessment of neurotoxicity a standardized clinical peripheral neuropathy scoring system was used, which included questioning subjects' symptoms, requiring a clinical examination based on a tuning fork test, and an evaluation of strength and peripheral reflexes. This individual clinical score could range from 0 (best) to 12 (worst) points, and based on the inclusion criteria of this trial, peripheral neuropathy was defined as an event when the score exceeded a value of 3 for the first time. A score had to be obtained, at a minimum, prior to and after six and twelve weeks of therapy in order for subjects to be included.
The probability of development of a peripheral neuropathy during paclitaxel therapy as a function of time, according to various genotypes, was analyzed using the Kaplan-Meier method. Statistical significance of the differences between Kaplan-Meier curves was determined using an exact log rank test. […]

[5] = tested on: subjects with locally advanced or metastatic cancer; details: both, human, in vivo
Experimental: as §2, §3
All data are reported as median values with the associated 95% CI, unless specified otherwise.

[6] = of the 15 subjects wild-type for ABCB1 2677G>T/A
[7] = subjects carrying at least one variant allele at ABCB1 2677
[8] = genotype 2677TT + 3435TT, 11 patients in total
[9] = other ABCB1 genotypes, 39 patients in total
[10] = ABCB1 1236C>T heterozygous (N=17)
[11] = ABCB1 1236C>T variant (N=4), range quoted instead of 95% CI
[12] = ABCB1 1236C>T wild-type (N=5), range quoted instead of 95% CI
[13] = ABCB1 2677G>T heterozygous (N=13)
[14] = ABCB1 2677G>T wild-type (N=2), range quoted instead of 95% CI
[15] = ABCB1 3435C>T heterozygous (N=14)
[16] = ABCB1 3435C>T wild-type (N=4), range quoted instead of 95% CI

CC(=O)O[C@@]12CO[C@@H]1C[C@H](O)[C@@]1(C)C(=O)[C@H](O)C3=C(C)[C@@H](OC(=O)[C@H](O)[C@@H](NC(=O)OC(C)(C)C)c4ccccc4)C[C@@](O)([C@@H](OC(=O)c4ccccc4)[C@H]21)C3(C)C [docetaxel, (2R,3S)—N-carboxy-3-phenylisoserine,N-tert-butyl ester, 13-ester with 5β-20-epoxy-1,2α,4,7β,10β,13α-hexahydroxytax-11-en-9-one 4-acetate 2-benzoate, trihydrate]
subjects who developed peripheral neuropathy during the observation period [1, 6]: 11 subjects
subjects who did not develop peripheral neuropathy during the observation period [1, 6]: 4 subjects
subjects who developed peripheral neuropathy during the observation period [1, 7]: 32 of 35
subjects who did not develop peripheral neuropathy during the observation period [1, 7]: 3 of 35
# Patients with Clinical Grade of Neutropenia, Grade 0 [2, 8]: 8 patients
# Patients with Clinical Grade of Neutropenia, Grade 2 [2, 8]: 0 patients
# Patients with Clinical Grade of Neutropenia, Grade 3 [2, 8]: 3 patients
# Patients with Clinical Grade of Neutropenia, Grade 0 [2, 9]: 35 patients
# Patients with Clinical Grade of Neutropenia, Grade 2 [2, 9]: 3 patients
# Patients with Clinical Grade of Neutropenia, Grade 3 [2, 9]: 1 patients

CC(=O)O[C@H]1C(=O)[C@@]2(C)[C@H]([C@H](OC(=O)c3ccccc3)[C@]3(O)C[C@H](OC(=O)[C@H](O)[C@@H](NC(=O)c4ccccc4)c4ccccc4)C(C)=C1C3(C)C)[C@]1(OC(C)=O)CO[C@@H]1C[C@@H]2O [paclitaxel, 5β,20-Epoxy-1,2α,4,7β,10β,13α-hexahydroxytax-11-en-9-one 4,10-diacetate 2-benzoate 13-ester with (2R,3S)—N-benzoyl-3-phenylisoserine]
association of ABCB1 genotypes with paclitaxel pharmacokinetic parameters ([3]; 26 subjects, ABCB1 1236C>T, 2677G>T, 3435C>T, Kruskal-Wallis test): none of the studied ABCB1 genotypes were associated with interindividual differences
AUCp, area under the curve of total paclitaxel, Median (95% CI) [3, 10]: 5264 (3879-6235) (ng/mL) × hr
AUCu, area under the curve of unbound paclitaxel, Median (95% CI) [3, 10]: 470 (445-519) (ng/mL) × hrs
T > 0.05 μM, duration of total plasma concentration of paclitaxel exceeding 0.05 μM, Median (95% CI) ([3]; ABCB1 1236C>T heterozygous (N=17, one patient without data)): 15.6 (9.3-19.3)* hours
AUCp, area under the curve of total paclitaxel, Median (95% CI) [3, 11]: 3547 (2309-5600) (ng/mL) × hr
AUCu, area under the curve of unbound paclitaxel, Median (95% CI) [3, 11]: 407 (362-522) (ng/mL) × hrs
T > 0.05 μM, duration of total plasma concentration of paclitaxel exceeding 0.05 μM, Median (95% CI) [3, 11]: 15.6 (8.8-24.9) hours
AUCp, area under the curve of total paclitaxel, Median (95% CI) [3, 12]: 4657 (2909-9916) (ng/mL) × hr
T > 0.05 μM, duration of total plasma concentration of paclitaxel exceeding 0.05 μM, Median (95% CI) [3, 12]: 20.3 (8.8-34.2) hours
AUCp, area under the curve of total paclitaxel, Median (95% CI) [3, 13]: 5146 (3776-7762) (ng/mL) × hr
AUCu, area under the curve of unbound paclitaxel, Median (95% CI) [3, 13]: 482 (371-641) (ng/mL) × hrs
T > 0.05 μM, duration of total plasma concentration of paclitaxel exceeding 0.05 μM, Median (95% CI) ([3]; ABCB1 2677G>T heterozygous (N=13, one patient without data)): 17.3 (9.6-20.7)* hours
AUCp, area under the curve of total paclitaxel, Median (95% CI) ([3]; ABCB1 2677G>T variant (N=11)): 4203 (2309-5600) (ng/mL) × hr
AUCu, area under the curve of unbound paclitaxel, Median (95% CI) ([3]; ABCB1 2677G>T variant (N=11)): 445 (362-516) (ng/mL) × hrs
T > 0.05 μM, duration of total plasma concentration of paclitaxel exceeding 0.05 μM, Median (95% CI) ([3]; ABCB1 2677G>T variant (N=11)): 12.6 (8.8-19.8) hours
AUCp, area under the curve of total paclitaxel, Median (95% CI) [3, 14]: 3348 (2909-3787) (ng/mL) × hr
AUCu, area under the curve of unbound paclitaxel, Median (95% CI) [3, 14]: 540 (507-572) (ng/mL) × hrs
T > 0.05 μM, duration of total plasma concentration of paclitaxel exceeding 0.05 μM, Median (95% CI) [3, 14]: 15.1 (8.8-21.3) hours
AUCp, area under the curve of total paclitaxel, Median (95% CI) [3, 15]: 5485 (3787-6344) (ng/mL) × hr
AUCu, area under the curve of unbound paclitaxel, Median (95% CI) [3, 15]: 512 (432-523) (ng/mL) × hrs
T > 0.05 μM, duration of total plasma concentration of paclitaxel exceeding 0.05 μM, Median (95% CI) ([3]; ABCB1 3435C>T heterozygous (N=14, one patient without data)): 19.8 (10.5-21.3)* hours
AUCp, area under the curve of total paclitaxel, Median (95% CI) ([3]; ABCB1 3435C>T variant (N=8)): 3656 (2259-5600) (ng/mL) × hr
AUCu, area under the curve of unbound paclitaxel, Median (95% CI) ([3]; ABCB1 3435C>T variant (N=8)): 448 (362-522) (ng/mL) × hrs
T > 0.05 μM, duration of total plasma concentration of paclitaxel exceeding 0.05 μM, Median (95% CI) ([3]; ABCB1 3435C>T variant (N=8)): 13.7 (8.7-18.9) hours
AUCp, area under the curve of total paclitaxel, Median (95% CI) [3, 16]: 4534 (2909-5146) (ng/mL) × hr
AUCu, area under the curve of unbound paclitaxel, Median (95% CI) [3, 16]: 420 (313-572) (ng/mL) × hrs
development of peripheral neuropathy during the observation period ([4]; four subjects wild-type for ABCB1 3435C>T (3435CC)): did not develop peripheral neuropathy
subjects who developed peripheral neuropathy ([4]; subjects carrying at least one variant allele at ABCB1 3435 (CT or TT)): 17 of 18
fold greater percent decrease in neutrophil count at nadir, double variant versus rest of the population [5]: approximately 1.5 fold
